Test results taken from patent US7115556B2, “Use of anti-prolactin agents to treat proliferative conditions” (Greenville Hospital System, priority 1998, dated 2006).

What was measured:
BT-474 cells = assay: TUNEL assay, BT-474; format: cell-based, human; conditions: 4-OH-Tamoxifen 1 μM, 24 hours
Description: (§1) Cell Culture. T-47D cells obtained from ATCC were grown in RPMI 1640 (phenol red free), supplemented with 10% FBS (GIBCO BRL). BT-474 cells were grown in RPMI 1640 medium (phenol red free) supplemented with 10% FBS and ATCC recommended supplements. MCF-7 cells were grown in DMEM medium (phenol red free), supplemented with 10% FBS. The cells were grown at 37° C. in a humid atmosphere in the presence of 5% CO2. The MDA-MB-134 cells were grown in Leibovitz's L-15 medium supplemented with 20% FBS and grown in CO2 free atmosphere. The breast cancer cells were trypsinized (0.02% Trypsin—EDTA) and grown in their respective media (phenol red free) supplemented with 10% CSS (Charcoal stripped serum) for a week. Subsequently the cells were trypsinized again and plated onto an 8 chambered slide system (Lab Tek II) at a confluence of 60–70% per chamber. The next day treatments were performed on the breast cancer cells using their respective media(phenol red free), supplemented with 1% CSS. The MDA-MB-134 VI cells were grown in phenol red containing medium, but with the same serum conditions as the other breast cancer cells.
(§2) Terminal deoxynucleotidly transferase mediated dUTP nick end labeling (TUNEL) assay. Nicks of the fragmented DNA are labeled at their 3-OH ends. The fluorescein-labeled dUTP is incorporated at the 3-OH ends by using the enzyme terminal deoxynucleotidyl transferase. After the assigned period of treatment the chambers were dismantled as per the manufacturer's instructions and the TUNEL assay (Apoptosis detection system, Fluorescein- Promega) was performed as per the manufacturer's instructions. The slide was examined under a FITC filter using an Olympus IX 70 microscope system.

MCF-7 cells = assay: TUNEL assay, MCF-7; format: cell-based, human; conditions: 4-OH-Tamoxifen 1 μM, 24 hours
Description: as §1
Terminal deoxynucleotidly transferase mediated dUTP nick end labeling (TUNEL) assay. Nicks of the fragmented DNA are labeled at their 3-OH ends. The fluorescein-labeled dUTP is incorporated at the 3-OH ends by using the enzyme terminal deoxynucleotidyl transferase. […]

[1] = test system: T47-D human breast cancer cells; assay: 96 well cell proliferation assay with conditioned media (MTS-PMS); format: cell-based
Description: HPRLG129R Conditioned Media. The assay conditions were modified from that described by Ginsburg and Vonderharr (1995, Cancer Res. 55:2591–2595). T47-D cells were trypsinized and passed into 96 well plates in RPMI-1640 media containing 1% DCC-FCS in a volume of 100 μl/well. The optimal cell number/well for each cell line was pre-determined after titration assay. For T47-D cells, 15,000 cells/well were plated. The cells were allowed to settle and adhere overnight (12–18 hours) and subsequently various concentrations of either hPRL, hRPL-G129R, E2 or 4-OH-Tamoxifen in a total volume of 100 μl of culture media were added. Purified hPRL (kindly provided by Dr. Parlow, National Hormone & Pituitary Program, NIH) was used as a positive control for hPRL produced from stable L cells. Cells were incubated for an additional 96 hours at 37° C. in a humidified 5% CO2 incubator. After incubation, MTS-PMS solution (Cell Titer 96 Aqueous kit, Promega Corp.) was added to each well, following the manufacturer's instructions. Plates were read at 490 nm using a BIO-RAD benchmark microplate reader. The experiments were carried out in triplicates and repeated three to six times for each cell line.

[2] = test system: T-47D human breast cancer cells; assay: TUNEL assay, T-47D; format: cell-based
Description: as §1, §2

[3] = test system: T47D human breast cancer cells; assay: Cell proliferation assay, cell counting; format: cell-based; conditions: for proliferation of T47D cells relative to untreated control cultures: FIGS. 5A-B; for shape of dose response curve, T-47D cell number: FIG. 4
Description: Cell proliferation assays. hPRLA was tested for its ability to inhibit breast cancer cell proliferation in tissue culture. The human breast cancer cells were grown in corresponding culture media according to ATCC recommendations. Cells were maintained at 37° C. in a humidified atmosphere of 5% CO2 in air. The assay conditions were essentially as described by Ginsburg and Vonderharr (1995, Cancer Res. 55:2591–2595). For individual growth experiments, cells were plated in 12 well culture plates at a density of approximately 2×10^4 /ml, 1 ml/ well. Cells were then allowed to attach for one day (T-47D, MCF-7, HTB19, and HTB20 cells, except for HTB 123, which is a suspension cells), then the overlying media was removed and changed to serum-free conditions with media containing ITS^+ (insulin-transferring-selenium-BSA-linoleic acid culture supplement; Collaborative Research Bedford, Mass.). Varying concentrations of hPRL alone or in combination with hPRLA were introduced. After an additional three days in culture, cells were harvested after brief trypsinization and counted in a cell counter.

[4] = test system: tyrosine phosphorylation of STAT protein; conditions: literature; cited from earlier work
[5] = test system: hGH receptor on T-47D and HTB123 cells; assay: Competitive radioreceptor binding assay; set-up: species or system human; conditions: T-47D and HTB123 compared to leukemia, lymphoma and retinoblastoma cells
[6] = test system: T47D human breast cancer cells; assay: Mixed cell culture assay with transfected L cells, T47D; format: cell-based; conditions: co-culture with transfected L cells, 24 h to five days
Text: For certain experiments, a mixed cell culture assay was used, diagramatically represented in FIG. 6. In this assay, breast cancer cells were co-cultured with expressor cells which had been transfected with nucleic acid encoding PRL or a PRL variant and expressing those recombinant proteins. By varying the number of expressor cells, the amount of PRL or PRL variant present in the mixed cell culture was increased or decreased. […] In certain wells, which served as a control, no expresser cells were added. Then, increasing numbers of expresser cells (transfected L cells expressing either HPRL (L-PRL) or hPRLA (L-PRLA)) were added to breast cancer cell-containing wells to create mixed cultures. The same numbers of expressor cells were cultured in parallel (without T47D cells) to serve as controls. After culturing under standard conditions for a period of time, the number of cells present in the wells was counted, and the number of L cells in the corresponding control culture was subtracted. The resulting number could then be compared to the number of T47D cells in the T47D control culture to evaluate the effects of the recombinant product on breast cancer cell proliferation.

[7] = test system: tyrosine phosphorylation of STAT5 protein in T-47D human breast cancer cells; assay: hPRL induction of tyrosine phosphorylation of STAT5 protein (Example 8); format: cell-based; conditions: T-47D cells, 5 nM of hormone alone, Western blot FIG. 3
Text: Assay of hPRL induction of tyrosine phosphorylation of STAT5 protein. […] Tyrosyl phosphorylation of STAT 5 is a receptor mediated event and is thought to be an important step in ligand-induced signal transduction (Wakao et al., 1994, EMBO J. 13: 2182–2191; Kazansky et al., 1995, Mol. Endocrinol. 9:1598–1609; Waxman et al., 1995, J. Biol. Chem. 270:13262–13270). This assay was used to evaluate the ability of hPRL and hPRLA to inhibit induction of STAT 5 phosphorylation by wild type PRL.
Briefly, human breast cancer cells were plated in 12-well plates. After pre-incubation in serum-free DMEM for 2–3 hours, the cells were exposed to various concentration of hPRL and hPRLA in serum-free DMEM. The cells were incubated for 15 min at 37° C., washed once with PBS, and lysed in 300 μl lysis buffer (50 mM Tris-HCl, pH 6.8, 1% SDS, 1% β-mecaptoethanol, 0.1M DTT, 5% Sucrose, 100 uM Sodium Orthovanadate, and 0.6% bromphenol blue). Thirty microliters of cell lysates were subjected to 4–12.5% SDS-PAGE and immunoblot analysis using horse radish peroxidase (HRP)-conjugated anti-phosphotyrosine antibody PY20 and ECL reagent kit (Amersham, Ill.). Blots were then exposed to X-ray films and developed using standard procedures (Kodak, Rochester, N.Y.). This assay has been described in Chen et al., 1994, J. Biol. Chem. 269: 15892–15897; Chen et al., 1995, Endocrinol. 136:660–667; Wang et al., 1994, Proc. Natl. Acad. Sci. U.S.A. 91:1391–1395; Chen et al., 1995, Mol. Endocrinol. 9(3):292–302; Harding et al., 1996, J. Biol. Chem. 271(12):6708–6712.

What does the source list for `CC/C(=C(\c1ccc(O)cc1)c1ccc(OCCN(C)C)cc1)c1ccccc1` [4-OH-Tamoxifen, reference compound]?
induction of apoptosis (BT-474 cells): did not induce apoptosis; induction of apoptosis (MCF-7 cells): did not induce apoptosis; inhibition of cell proliferation ([1]; 100 nM 4-OH-Tamoxifen alone): 15%; maximum inhibition by a single dose ([1]; 4-OH-Tamoxifen at 500 nM, T47-D): approximately 15 % of control; induction of apoptosis ([2]; 4-OH-Tamoxifen 1 μM, 24 hours): did not induce apoptosis

Which “proliferation of T47D cells relative to untreated control cultures” value [3] does the source give for `CC/C(=C(\c1ccccc1)c1ccc(OCCN(C)C)cc1)c1ccccc1` [tamoxifen, reference compound] here?
The value was “comparable inhibitory effect”.

With estrogen [reference compound] as the molecule, how does the “proliferation of T47D cells relative to untreated control cultures” value [3] read?
Its value is “increased proliferation”.

With “hGH-G120R: GH antagonist, variant of human GH with glycine at position 120 substituted with arginine” as the molecule, how does the “effect on GH induction of STAT protein phosphorylation” value [4] read?
Its value is “inhibit GH induction of STAT protein phosphorylation in a dose dependent manner”.

For hGH: human growth hormone, which “hGH receptor specific binding” value [5] is on record?
Its value is “minimum”.

And the “shape of dose response curve, T-47D cell number” value [3]?
Its value is “bell shaped dose response curves”.

B1: hPRL: human prolactin, recombinant from transfected mouse L cells or purified from NIH (protein)
chain: LPICPGGAARCQVTLRDLFDRAVVLSHYIHNLSSEMFSEFDKRYTHGRGFITKAINSCHTSSLATPEDKEQAQQMNQKDFLSLIVSILRSWNEPLYHLVTEVRGMQEAPEAILSKAVEIEEQTKRLLEGMELIVSQVHPETKENEIYPVWSGLPSLQMADEESRLSAYYNLLHCLRRDSHKIDNYLKLLKCRIIHNNNC
With B1 as the molecule, how does the “T47D proliferation relative to untreated T47D cell cultures” value [6] read?
The value was “increase in T47D proliferation”.

And the “shape of dose response curve, T-47D cell number” value [3]?
Its value is “bell shaped dose response curves”.

What about the “proliferation of T47D cells relative to untreated control cultures” value [3] of the same molecule?
The value was “increased proliferation”.

And the “maximum response in the presence of E2 compared to hPRL alone” value ([1]; hPRL 100 ng/ml with 10 nM E2)?
The value was “more than tripled”.

What about the “maximum stimulation over basal levels” value ([1]; hPRL 250 ng/ml, single dose, four-day incubation) of the same molecule?
Its value is “approximately 20%”.

And the “effect on T47-D proliferation, dose response” value ([1]; single dose, four-day incubation)?
Its value is “stimulated T47-D proliferation in a dose dependent manner”.

And the “induction of phosphorylation of STAT5 proteins” value [7]?
Its value is “induced”.

What about the “reversal of G129R-induced DNA fragmentation” value ([2]; 4:1 ratio (500 ng/ml hPRL, 125 ng/ml hPRL-G129R)) of the same molecule?
The value was “competitively reverse the DNA fragmentation”.
